The values below are quoted from earlier work in patent publication US20200069758A1, “COMPOSITION FOR USE IN THE PREVENTIVE AND/OR CURATIVE TREATMENT OF NON-ALCOHOLIC FATTY LIVER DISEASE” (NORMAPHAR SA, priority 2018, published 2020).

For the data set the following is noted: background art statement; for complications / mortality on administration: long-term or high-dose administration.

For the compound `CN(C)C(=N)N=C(N)N` [metformin], the “reduction of non-alcoholic fatty liver disease (simple fatty liver disease, NASH)” value is “failed to significantly reduce”.

As to `CCc1ccc(CCOc2ccc(CC3SC(=O)NC3=O)cc2)nc1` (stereo not shown) [pioglitazone], the “complications / mortality on administration” value is “heart failure, osteoporosis and weight gain”.

For Vitamin E, the “reduction of non-alcoholic fatty liver disease (simple fatty liver disease, NASH)” value was “reductions were observed in the inflammation and non-alcoholic fatty liver disease”; the “complications / mortality on administration” value is recorded as “increases all-cause mortality”.
